Measured values published in article PMC2375326, “In vitro evaluation of amino acid prodrugs of novel antitumour 2-(4-amino-3-methylphenyl)benzothiazoles” (British Journal of Cancer, 2002).
Each block holds one compound with its values, some of them ahead of it.

What was measured:
[1] = target: T1, CYP1A1 (Homo sapiens, UniProt P04798); assay: Inhibition of recombinant CYP1A1 microsomal EROD activity; type: biochemical; details: microsomes expressing recombinant CYP1A1, pH 7.4, probe 7-ethoxyresorufin (100 μM); 30 μM agent; incubates without drug = 100% activity; mean of three, s.d. <10%; read-out: Microsomal CYP1A1 EROD activity (% control)
T1 sequence (P04798 1-512): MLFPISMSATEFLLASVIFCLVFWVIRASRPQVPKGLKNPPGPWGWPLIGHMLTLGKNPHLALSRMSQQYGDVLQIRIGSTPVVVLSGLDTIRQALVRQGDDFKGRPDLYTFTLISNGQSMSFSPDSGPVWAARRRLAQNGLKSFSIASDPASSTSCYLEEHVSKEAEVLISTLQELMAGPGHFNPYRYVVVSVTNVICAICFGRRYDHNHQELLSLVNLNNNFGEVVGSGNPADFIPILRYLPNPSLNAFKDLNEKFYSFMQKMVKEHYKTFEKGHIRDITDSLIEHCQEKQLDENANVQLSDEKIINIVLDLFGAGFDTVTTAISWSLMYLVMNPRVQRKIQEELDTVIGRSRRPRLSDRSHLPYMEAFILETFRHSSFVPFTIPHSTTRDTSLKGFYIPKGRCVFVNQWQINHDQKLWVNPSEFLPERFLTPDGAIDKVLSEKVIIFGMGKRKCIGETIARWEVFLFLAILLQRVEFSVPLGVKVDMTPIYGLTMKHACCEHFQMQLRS
Description: A sensitive and rapid fluorometric assay was used to measure EROD activity ([Burke et al, 1994]). Incubation mixtures (total 1 ml) consisted of 100 mM Tris-HCl (pH 7.4), 50 μM MgCl2, 100 μM 7-ethoxyresorufin and 100 μl cell homogenate. Homogenates were prepared following treatment of cells for 24 h with compounds 1, 2, 2a, 2b, 3, 3a, 3b, 4, 4a and 4b or vehicle alone and protein content determined (n=3). Thus induction of ethoxyresorufin O-deethylation by agents under study, catalysed by CYP1A1 activity, could be determined. Alternatively, microsomes expressing recombinant CYP1A1 (0.1 mg ml^−1) provided the enzyme source for EROD catalysis, in the presence or absence of drug, in order to determine inhibition of CYP1A1 activity by compounds 1, 2, 2a, 2b, 3, 3a, 3b, 4, 4a and 4b. Incubation mixtures were pre-incubated for 5 min at 37°C before initiation of reaction by addition of NADPH (500 μM). Following further incubations at 37°C (30 min for cell homogenates, 15 min for CYP1A1 microsomes), reactions were terminated by addition of 3 ml ice-cold acetonitrile. Reaction mixtures were centrifuged (1400 r.p.m., 10 min) before analyses of supernatants. Fluorescence was read on a Perkin-Elmer LS-5 luminescence spectrometer (excitation, 530 nm; emission 585 nm). Estimation of resorufin reaction product (pmoles mg^−1 protein, pmoles 100 μg^−1 microsomes), as a measure of CYP1A1 activity, was determined following performance of a resorufin standard curve.

[2] = system: NCI in vitro panel of human derived cancer cell lines; assay: NCI in vitro cytotoxicity assay (SRB), whole panel mean graph; type: cell-based; details: average GI50 over the panel, 48 h exposure, sulforhodamine B assay, read-out: Log10 GI50 (MG_MID) (converted)
Description: (§1) Cell culture and drug application procedures have been described previously ([Boyd and Paull, 1995]). Briefly, cell lines were inoculated into a series of 96-well microtiter plates, with varied seeding densities depending on growth characteristics of each cell line. Following a 24 h drug free incubation, test agents were added at five 10-fold dilutions with a maximum concentration of 100 μM. Cellular protein levels were determined after 48 h drug exposure by sulphorhodamine B colorimetry.

[3] = system: U251; assay: NCI in vitro cytotoxicity assay (SRB), U251; type: cell-based; details: Homo sapiens, U-251; 48 h exposure, sulforhodamine B assay, mean graph; read-out: Log10 GI50 (U251) (converted)
Description: as §1

[4] = system: OVCAR-3; assay: NCI in vitro cytotoxicity assay (SRB), OVCAR-3; type: cell-based; details: Homo sapiens, 48 h exposure, sulforhodamine B assay, mean graph, read-out: Log10 GI50 (OVCAR-3) (converted)
Description: as §1

[5] = system: HCT-15; assay: NCI in vitro cytotoxicity assay (SRB), HCT-15; type: cell-based; details: Homo sapiens, 48 h exposure, sulforhodamine B assay, mean graph, read-out: Log10 GI50 (HCT-15) (converted)
Description: as §1

[6] = system: CYP1A1 protein expression in HCT 116 cells; assay: Western blot of CYP1A1 protein, HCT 116 lysates; type: cell-based, human
Description: Whole cell lysates were prepared for examination of CYP1A1 protein expression from untreated MCF-7, IGROV-1 and HCT 116 cultures and following exposure of cells to compounds 1, 2, 2a, 2b, 3, 3a, 3b, 4, 4a and 4b. Following protein determination (n=3, [Bradford, 1976]) and addition of sample buffer, samples were boiled at 95°C for 5 min and solubilised proteins (50 μg) were separated by sodium dodecyl sulphate (SDS) polyacrylamide gel (10%) electrophoresis. Proteins were electroblotted to polyvinylidene difluoride (PVDF) membranes and probed for CYP1A1 protein with polyclonal antiserum specific for human CYP1A1/1A2 (Gentest Corporation). Secondary antibody was conjugated to alkaline phosphatase, and CYP1A1 was detected following brief (<10 min) incubation with bromochloroindolyl phosphate and nitro-blue tetrazolium in alkaline phosphatase buffer. Molecular weight markers and a positive control of recombinant CYP1A1 (Gentest Corporation), included in all blots, confirmed detection of 52 kDa CYP1A1 protein.

[7] = system: NCI-H226; assay: NCI in vitro cytotoxicity assay (SRB), NCI-H226; type: cell-based; details: Homo sapiens, 48 h exposure, sulforhodamine B assay, mean graph, read-out: Log10 GI50 (NCI-H226) (converted)
Description: as §1

[8] = system: BT-549; assay: NCI in vitro cytotoxicity assay (SRB), BT-549; type: cell-based; details: Homo sapiens, 48 h exposure, sulforhodamine B assay, mean graph, read-out: Log10 GI50 (BT-549) (converted)
Description: as §1

[9] = system: PC-3; assay: NCI in vitro cytotoxicity assay (SRB), PC-3; type: cell-based; details: Homo sapiens, 48 h exposure, sulforhodamine B assay, mean graph, read-out: Log10 GI50 (PC-3) (converted)
Description: as §1

[10] = system: MALME-3M; assay: NCI in vitro cytotoxicity assay (SRB), MALME-3M; type: cell-based; details: Homo sapiens, 48 h exposure, sulforhodamine B assay, mean graph, read-out: Log10 GI50 (MALME-3M) (converted)
Description: as §1

[11] = system: SF-539; assay: NCI in vitro cytotoxicity assay (SRB), SF-539; type: cell-based; details: Homo sapiens, 48 h exposure, sulforhodamine B assay, mean graph, read-out: Log10 GI50 (SF-539) (converted)
Description: as §1

[12] = system: OVCAR-8; assay: NCI in vitro cytotoxicity assay (SRB), OVCAR-8; type: cell-based; details: Homo sapiens, 48 h exposure, sulforhodamine B assay, mean graph, read-out: Log10 GI50 (OVCAR-8) (converted)
Description: as §1

[13] = system: SNB-19; assay: NCI in vitro cytotoxicity assay (SRB), SNB-19; type: cell-based; details: Homo sapiens, 48 h exposure, sulforhodamine B assay, mean graph, read-out: Log10 GI50 (SNB-19) (converted)
Description: as §1

activity at 15 min, 30 μM [1]: 30.4%
CYP1A1 protein expression (Western blot) [6]: not induced
Structure (SMILES): Cc1cc(-c2nc3cc(F)ccc3s2)ccc1N [Compound 2, 2-(4-Amino-3-methylphenyl)-5-fluorobenzothiazole]
GI50 [2]: 11 µM
GI50 [3]: 41.7 µM
GI50 [4]: 24.5 µM
GI50 [5]: 7.94 µM
GI50 [7]: < 0.01 µM
GI50 [8]: > 100 µM
GI50 [9]: 23.4 µM
GI50 [10]: 91.2 µM
GI50 [11]: 27.5 µM
GI50 [12]: > 100 µM
GI50 [13]: 26.3 µM

activity at 15 min, 30 μM [1]: 38.5%
CYP1A1 protein expression (Western blot) [6]: not induced
Structure (SMILES): Cc1cc(-c2nc3cc(F)ccc3s2)ccc1NC(=O)[C@@H](N)CCCCN [Compound 2b]
GI50 [2]: 2.51 µM
GI50 [3]: 2.14 µM
GI50 [4]: 10.7 µM
GI50 [5]: 5.25 µM
GI50 [7]: 0.155 µM
GI50 [8]: 14.1 µM
GI50 [9]: 12.6 µM
GI50 [10]: 17.4 µM
GI50 [11]: 14.1 µM
GI50 [12]: 11.2 µM
GI50 [13]: 13.5 µM
